Measurements taken from patent publication US4380512A, “2β-Chloromethyl-2α-methylpenam-3α-carboxylic acid sulfone and salts and esters thereof” (Bristol-Myers Company, priority 1981, dated 1983).
Read-outs that look alike come from different tables or passages of the source.

Experiments:
Hygroscopicity = type: physicochemical; conditions: solid
Storage stability = type: physicochemical; conditions: 23° C., seven days
S. marcescens = test: Antibacterial activity of ceforanide alone and with BL-P2013, MIC (Table 11); type: cell-based; conditions: geometric mean
Description: (§1) ^a Geometric mean value where applicable.

P. aeruginosa = test: as above; type: cell-based; conditions: Pseudomonas aeruginosa; 16 strains, geometric mean; read-out: MIC
Description: as §1

P. stuartii = test: as above; type: cell-based; conditions: Providencia stuartii
Description: as §1

Citrobacter sp. = test: as above; type: cell-based; conditions: 1 strain, read-out: MIC
Description: as §1

M. morganii = test: as above; type: cell-based; conditions: 8 strains (second line), geometric mean
Description: as §1

C. freundii = test: as above; type: cell-based; conditions: Citrobacter freundii; 1 strain; read-out: MIC
Description: as §1

E. aerogenes = test: as above; type: cell-based; conditions: Klebsiella aerogenes, read-out: MIC
Description: as §1

B. thetaiotaomicron = test: Anti-Bacteroides activity, MIC by agar dilution (Table 2); type: cell-based; conditions: A22279, beta-lactamase +
Description: *Minimum inhibitory concentration (MIC) determined by the agar dilution
method using 50X dilutions of 24 hour cultures as inocula dispensed by th
Steer's inoculator. Assay medium composed of Brucella Agar plus 5% laked
sheep blood and 10 mcg/ml vitamin K.

[1] = mouse, in vivo, po, 38 mg/kg
in vivo [2] = conditions: mouse, po, 38 mg/kg
Description: Compounds were solubilized in propylene glycol, except for the Hetacillin

[3] = test system: β-lactamase-producing bacteria; test: Protection of ceforanide and amoxicillin from destruction; conditions: in vitro and in vivo, in combination
E. coli A9675 = test: Therapeutic efficacy of BL-P2043, BL-P2044 and components, oral, infected mice (Table 13); type: in vivo; conditions: Escherichia coli, A9675, po, read-out: PD50/Treatment
in vivo [4] = conditions: mouse, po, 38 mg/kg; remark: listed apart in the source
[5] = Blood levels after oral administration to mice (Table 4); type: in vivo; conditions: 100 mg/kg oral, 15 min, assay S. aureus A-9606
Bacteroides species = test: Anti-Bacteroides activity, MIC by agar dilution (Table 2); type: cell-based

CC1(CCl)C(C(=O)O)N2C(=O)CC2S1(=O)=O (stereo not drawn) [BL-P2013 Free Acid, 2β-chloromethyl-2α-methylpenam-3α-carboxylic acid sulfone]
hygroscopicity (Hygroscopicity): hydroscopic | stability on storage (Storage stability): unstable when stored at 23 °C for seven days

CC1(CCl)C(C(=O)O)N2C(=O)CC2S1(=O)=O (stereo not drawn) [BL-P2013, Potassium 2β-Chloromethyl-2α-methylpenam-3α-carboxylate Sulfone]
MIC (S. marcescens; 6 strains): 125 mg/L | MIC (S. marcescens; Serratia marcescens, 10 strains, read-out: MIC): 125 mg/L | MIC (P. aeruginosa): 125 mg/L | MIC (P. stuartii; 1 strain): 125 mg/L | MIC (P. stuartii; 4 strains, geometric mean): 125 mg/L | MIC (Citrobacter sp.): 16 mg/L | MIC (M. morganii): > 125 mg/L | MIC (C. freundii): > 125 mg/L | MIC (E. aerogenes; 1 strain): 16 mg/L | MIC (E. aerogenes; 4 strains, geometric mean): > 125 mg/L | MIC (E. aerogenes; 5 strains, geometric mean): > 125 mg/L | MIC (B. thetaiotaomicron): 63 mg/L | Blood Level ([1]; 0.5 h): 1.8 µg/mL | Blood Level ([1]; 1 h): 1.4 µg/mL | AUC (in vivo [2]): 4.4 µg·h/mL | concentration at 0.5 h (in vivo [2]): 2.3 µg/mL | concentration at 2 h (in vivo [2]): 1.6 µg/mL | protection of ceforanide and amoxicillin from destruction by β-lactamase-producing bacteria [3]: protected ceforanide and amoxicillin from destruction by β-lactamase-producing bacteria in vitro and in vivo | ED50 (E. coli A9675): > 50 mg/kg | AUC (in vivo [4]; AUC): 4.4 µg·h/mL | concentration at 0.5 h (in vivo [4]; Blood Level): 2.3 µg/mL | Blood Level [5]: 4.6 µg/mL | MIC (Bacteroides species; A20927-1, beta-lactamase -): 63 mg/L | MIC (Bacteroides species; A20933, beta-lactamase +): 63 mg/L
